Measured values from ChEMBL document CHEMBL1201862, “PubChem BioAssay data set” (2004).
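Grown in 96-well plates, cells were treated for 48 hours with each compound at five concentrations. Insufficient inhibition: endpoint recorded as highest concentration tested. GI50 = concentration required for 50% inhibition of growth.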 The source made the active and inactive calls. No stated cut-off is given here; in the data, active = GI50 up to about 1.1 µM and inactive = higher.

What was measured:
Experiment in all cases: NCI-60 cell line screen, 48 h
786-0 = tested on: 786-0
A498 = tested on: A498
A549 = tested on: A549
ACHN = tested on: ACHN
BT-549 = tested on: BT-549
CAKI-1 = tested on: CAKI-1
CCRF-CEM = tested on: CCRF-CEM
COLO 205 = tested on: COLO 205
EKVX = tested on: EKVX
HCC 2998 = tested on: HCC 2998
HCT-116 = tested on: HCT-116
HCT-15 = tested on: HCT-15
HOP-62 = tested on: HOP-62
HT-29 = tested on: HT-29
Hs-578T = tested on: Hs-578T
K562 = tested on: K562
KM12 = tested on: KM12
M14 = tested on: M14
MCF7 = tested on: MCF7
MDA-MB-231 = tested on: MDA-MB-231
MDA-MB-435 = tested on: MDA-MB-435
MOLT-4 = tested on: MOLT-4
Malme-3M = tested on: Malme-3M
NCI-H226 = tested on: NCI-H226
NCI-H23 = tested on: NCI-H23
NCI-H460 = tested on: NCI-H460
NCI/ADR-RES = tested on: NCI/ADR-RES
OVCAR-3 = tested on: OVCAR-3
OVCAR-4 = tested on: OVCAR-4
OVCAR-5 = tested on: OVCAR-5
OVCAR-8 = tested on: OVCAR-8
PC-3 = tested on: PC-3
RPMI-8226 = tested on: RPMI-8226
RXF 393 = tested on: RXF 393
SF-268 = tested on: SF-268
SF-295 = tested on: SF-295
SF-539 = tested on: SF-539
SK-MEL-28 = tested on: SK-MEL-28
SK-MEL-2 = tested on: SK-MEL-2
SK-OV-3 = tested on: SK-OV-3
SN12C = tested on: SN12C
SNB-19 = tested on: SNB-19
SNB-75 = tested on: SNB-75
SW-620 = tested on: SW-620
T47D = tested on: T47D
U-251 = tested on: U-251
UACC-257 = tested on: UACC-257
UACC-62 = tested on: UACC-62
UO-31 = tested on: UO-31
DU-145 = tested on: DU-145
HL-60 = tested on: HL-60
IGROV-1 = tested on: IGROV-1
LOX IMVI = tested on: LOX IMVI
MDA-N = tested on: MDA-N
NCI-H522 = tested on: NCI-H522
SR = tested on: SR
TK-10 = tested on: TK-10
HOP-92 = tested on: HOP-92
SK-MEL-5 = tested on: SK-MEL-5

Measured: GI50

CCOc1ccc(N/C(=C(/C(Cl)=C(/Cl)NC(C)(C)C)[N+](=O)[O-])n2nnc3ccccc32)cc1
20.4 µM: HCT-15
inactive: 786-0 18 µM | A498 91.6 µM | A549 70.3 µM | ACHN 31.8 µM | BT-549 17.9 µM | CAKI-1 19.3 µM | CCRF-CEM 12.7 µM | COLO 205 21.1 µM | EKVX 39 µM | HCC 2998 > 100 µM | HCT-116 18.6 µM | HOP-62 70 µM | HT-29 35.1 µM | Hs-578T 11 µM | K562 > 100 µM | KM12 21.1 µM | M14 > 100 µM | MCF7 26.1 µM | MDA-MB-231 17.9 µM | MDA-MB-435 18.2 µM | MOLT-4 > 100 µM | Malme-3M 15.8 µM | NCI-H226 > 100 µM | NCI-H23 22.6 µM | NCI-H460 76.9 µM | NCI/ADR-RES 32.4 µM | OVCAR-3 25.9 µM | OVCAR-4 25.6 µM | OVCAR-5 31.6 µM | OVCAR-8 16.6 µM | PC-3 28.7 µM | RPMI-8226 23.9 µM | RXF 393 20.1 µM | SF-268 16.7 µM | SF-295 28.1 µM | SF-539 24.1 µM | SK-MEL-28 16.4 µM | SK-MEL-2 31.6 µM | SK-OV-3 59.8 µM | SN12C 34 µM | SNB-19 47.6 µM | SNB-75 24.2 µM | SW-620 19.2 µM | T47D 15.5 µM | U-251 19 µM | UACC-257 53.7 µM | UACC-62 22.8 µM | UO-31 29.9 µM

CC12CCC(C(=O)OC1=O)C2(C)C (centres undefined)
active: SR 0.628 µM
inactive: 786-0 > 100 µM | A498 > 100 µM | ACHN > 100 µM | CCRF-CEM > 100 µM | COLO 205 > 100 µM | DU-145 > 100 µM | HCC 2998 > 100 µM | HCT-116 > 100 µM | HL-60 32.1 µM | HOP-62 > 100 µM | HT-29 > 100 µM | Hs-578T > 100 µM | IGROV-1 > 100 µM | K562 > 100 µM | KM12 > 100 µM | LOX IMVI > 100 µM | M14 > 100 µM | MCF7 > 100 µM | MDA-MB-231 > 100 µM | MDA-MB-435 > 100 µM | MDA-N > 100 µM | MOLT-4 > 100 µM | Malme-3M > 100 µM | NCI-H226 > 100 µM | NCI-H23 1.67 µM | NCI-H460 > 100 µM | NCI-H522 > 100 µM | NCI/ADR-RES > 100 µM | OVCAR-3 > 100 µM | OVCAR-4 > 100 µM | OVCAR-5 > 100 µM | OVCAR-8 > 100 µM | PC-3 > 100 µM | RPMI-8226 > 100 µM | RXF 393 > 100 µM | SF-268 > 100 µM | SF-295 > 100 µM | SF-539 > 100 µM | SK-MEL-28 > 100 µM | SK-MEL-2 28.7 µM | SK-OV-3 > 100 µM | SN12C > 100 µM | SNB-19 > 100 µM | SNB-75 82.4 µM | SW-620 > 100 µM | T47D > 100 µM | TK-10 > 100 µM | U-251 > 100 µM | UACC-257 8.81 µM | UACC-62 > 100 µM | UO-31 > 100 µM
> 100 µM: HCT-15

Cc1c(/C=N/NC(=S)Nc2ccccc2)c(=O)n(-c2ccccc2)n1C
inactive: 786-0 > 100 µM | A498 71.4 µM | ACHN > 100 µM | BT-549 > 100 µM | CAKI-1 46.2 µM | CCRF-CEM 48 µM | COLO 205 > 100 µM | DU-145 > 100 µM | EKVX > 100 µM | HCC 2998 > 100 µM | HCT-116 > 100 µM | HL-60 > 100 µM | HOP-62 > 100 µM | HOP-92 > 100 µM | HT-29 > 100 µM | Hs-578T > 100 µM | IGROV-1 > 100 µM | K562 31.2 µM | KM12 > 100 µM | LOX IMVI > 100 µM | M14 > 100 µM | MCF7 > 100 µM | MDA-MB-231 > 100 µM | MDA-MB-435 > 100 µM | MOLT-4 > 100 µM | NCI-H226 > 100 µM | NCI-H23 > 100 µM | NCI-H460 > 100 µM | NCI/ADR-RES 22.1 µM | OVCAR-4 > 100 µM | OVCAR-8 > 100 µM | PC-3 > 100 µM | RPMI-8226 > 100 µM | RXF 393 > 100 µM | SF-268 > 100 µM | SF-295 > 100 µM | SF-539 > 100 µM | SK-MEL-28 > 100 µM | SK-MEL-2 > 100 µM | SK-MEL-5 > 100 µM | SK-OV-3 > 100 µM | SNB-19 > 100 µM | SNB-75 > 100 µM | SR > 100 µM | SW-620 > 100 µM | T47D > 100 µM | TK-10 > 100 µM | U-251 > 100 µM | UACC-257 > 100 µM | UACC-62 > 100 µM | UO-31 57.5 µM
47.5 µM: HCT-15
